# Patent US20240368168A1, “SARM1 ENZYME ACTIVITY INHIBITOR AND APPLICATION THEREOF” (ARTIVILA BIOPHARMA, priority 2021, published 2024)
# Biological target: T1, dN-SARM1 protein (Homo sapiens, UniProt Q6SZW1)
# T1 construct: the N-terminal mitochondrial localization signal peptide of SARM1 was removed
# T1 sequence (Q6SZW1 28-724): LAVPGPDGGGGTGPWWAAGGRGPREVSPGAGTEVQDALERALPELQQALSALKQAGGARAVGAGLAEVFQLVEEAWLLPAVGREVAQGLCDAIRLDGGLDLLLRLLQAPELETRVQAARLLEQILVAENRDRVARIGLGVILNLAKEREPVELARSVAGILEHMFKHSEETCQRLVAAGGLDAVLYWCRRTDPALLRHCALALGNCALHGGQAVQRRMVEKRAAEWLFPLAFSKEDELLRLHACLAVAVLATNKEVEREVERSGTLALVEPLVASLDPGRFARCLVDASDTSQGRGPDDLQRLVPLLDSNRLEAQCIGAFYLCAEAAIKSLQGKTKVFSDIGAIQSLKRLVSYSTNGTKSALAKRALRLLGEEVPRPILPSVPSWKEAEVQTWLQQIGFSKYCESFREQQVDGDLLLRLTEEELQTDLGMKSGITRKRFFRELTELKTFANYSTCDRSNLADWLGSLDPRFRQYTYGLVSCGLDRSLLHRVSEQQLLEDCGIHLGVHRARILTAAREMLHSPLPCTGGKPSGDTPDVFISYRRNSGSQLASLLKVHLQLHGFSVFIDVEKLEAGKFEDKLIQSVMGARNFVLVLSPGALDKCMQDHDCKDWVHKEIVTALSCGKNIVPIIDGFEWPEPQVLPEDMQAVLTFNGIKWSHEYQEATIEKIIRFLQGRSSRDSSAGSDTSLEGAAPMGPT
# Test: In vitro biochemical assay for inhibiting SARM1 enzymatic activity (IC50), PC6 fluorescence method
# Conditions: 50 μM NAD, 50 μM PC6, 50 μM NMN activator
# Experimental: 200 μM compound was first added to a solution of 0.05 μg/ml dN-SARM1 in 50 mM Tris-HCl (pH 7.5). Half of the mixture was added to an equal volume of a solution of 0.05 μg/ml dN-SARM1 in 50 mM Tris-HCl (pH 7.5) and mixed. The drug was diluted 6 times in this manner, with the final concentrations being 200, 100, 50, 25, 12.5, 6.25, 3.125 μM, or 200, 50, 12.5, 3.125, 0.78, 0.195, 0.049 μM, respectively. The protein without inhibitors added, being used as control group, was incubated at room temperature for 10 minutes.
# 50 μM NAD, 50 μM PC6 as substrate and 50 μM NMN as activator were added to the dN-SARM1 protein incubated with the inhibitor and reacted for 30 minutes at room temperature. The concentration of each component was the final concentration in the reaction system.
# During the reaction, PC6 fluorescence spectrum dynamics were detected by a microplate reader, wherein the excitation wavelength and emission wavelength for detection were 390 nm and 520 nm, respectively. Finally, the reaction rate was used to express the activity of the protein, and the half inhibitory concentration was calculated. The higher the reaction rate, the stronger the protein activity, and the lower the inhibitory efficiency of the compound.
# The dose curve of compounds inhibiting SARM1 enzymatic activity was determined using the above method.
row,SMILES,IC50
1,"NS(=O)(=O)c1cccc(-c2cnc3ccc(N[C@@H]4CCCNC4)cn23)c1 [Compound 89, (R)-3-(6-(piperidin-3-ylamino)imidazo[1,2-a]pyridin-3-yl)benzenesulfonamide]",< 1000 nM
2,CN(C(=O)OC(C)(C)C)c1ccc2ncc(-c3ccc4ccncc4c3)n2c1 [Compound 270],< 1000 nM
3,c1cc(-c2cnc3ccc(N4CCOCC4)cn23)cc(N2CCOCC2)c1 [Compound 226],1000 to 10000 nM
4,"CC(=O)N(C)c1ccc2ncc(-c3ccccc3Cl)n2c1 [Compound 92, N-(3-(2-chlorophenyl)imidazo[1,2-a]pyridin-6-yl)-N-methylacetamide]",1000 to 10000 nM
5,CN(C(=O)OC(C)(C)C)c1ccc2ncc(-c3ccc4[nH]ccc4n3)n2c1 [Compound 196],1000 to 10000 nM
6,CN(C(=O)OC(C)(C)C)c1ccc2ncc(C3CCCc4ncccc43)n2c1 (stereo not shown) [Compound 311],< 1000 nM
7,CNc1ccc2ncc(-c3cccc(-n4cccc4)c3)n2c1 [Compound 200],1000 to 10000 nM
8,COc1ccc2ncc(-c3cccc4c3CNC4=O)n2c1 [Compound 235],1000 to 10000 nM
9,"CNc1ccc2ncc(C3CCCCC3)n2c1 [Compound 85, 3-cyclohexyl-N-methylimidazo[1,2-a]pyridin-6-amine]",1000 to 10000 nM
10,CNC(=O)c1ccccc1-c1cnc2ccc(NC)cn12 [Compound 176],1000 to 10000 nM
11,CNc1ccc2ncc(-c3ccc4cc[nH]c4n3)n2c1 [Compound 192],1000 to 10000 nM
12,CN(C)CCN1Cc2c(cccc2-c2cnc3ccc(N(C)C(=O)OC(C)(C)C)cn23)C1=O [Compound 291],1000 to 10000 nM
13,Nc1cccc(-c2cnc3ccc(N4CCCC4=O)cn23)c1 [Compound 204],1000 to 10000 nM
14,CNc1ccc2ncc(-c3cccc4c3C(=O)NC4)n2c1 [Compound 165],< 1000 nM
15,COCCOCCNC(=O)c1cccc(-c2cnc3ccc(N(C)C(C)=O)cn23)c1 [Compound 310],1000 to 10000 nM
16,CNc1ccc2ncc(-c3cccc(NC(=O)COCc4ccccc4)c3)n2c1 [Compound 250],1000 to 10000 nM

row,SMILES,IC50
1,CNc1ccc2ncc(-c3cccc(-n4cccn4)c3)n2c1 [Compound 179],< 1000 nM
2,CNc1ccc2ncc(-c3cccc4c3CN(CCN(C)C)C4=O)n2c1 [Compound 292],1000 to 10000 nM
3,O=C(Nc1cccc(-c2cnc3ccc(-n4cccn4)cn23)c1)C1CCOCC1 [Compound 207],1000 to 10000 nM
4,CN(C(=O)OC(C)(C)C)c1ccc2ncc(-c3cncnc3)n2c1 [Compound 283],1000 to 10000 nM
5,CNc1ccc2ncc(-c3cnc(N)nc3)n2c1 [Compound 195],1000 to 10000 nM
6,CNc1ccc2ncc(-c3ccnnc3)n2c1 [Compound 186],1000 to 10000 nM
7,CC(C)(C)OC(=O)N(CCCc1ccccc1)c1ccc2ncc(-c3cccc(NC(=O)C4CCOCC4)c3)n2c1 [Compound 217],1000 to 10000 nM
8,CNc1ccc2ncc(-c3ccccc3C(C)NC(=O)C3CCOCC3)n2c1 (stereo not shown) [Compound 191],1000 to 10000 nM
9,"CN(C(=O)OC(C)(C)C)c1ccc2ncc(-c3cncc4[nH]cc(I)c34)n2c1 [Compound 208, tert-butyl (3-(3-iodo-1H-pyrrolo[2,3-c]pyridin-4-yl)imidazo[1,2-a]pyridin-6-yl)(methyl) carbamate]",1000 to 10000 nM
10,"CN(C(=O)OC(C)(C)C)c1ccc2ncc(-c3cccc(S(N)(=O)=O)c3)n2c1 [Compound 61, tert-butyl methyl (3-(3-sulfamoylphenyl)imidazo[1,2-a]pyridin-6-yl)carbamate]",1000 to 10000 nM
11,CNc1ccc2ncc(-c3cccc(CNC(=O)C4CCOCC4)c3)n2c1 [Compound 242],< 1000 nM
12,CNc1ccc2ncc(-c3ccncc3F)n2c1 [Compound 261],< 1000 nM
13,CNc1ccc2ncc(-c3ccc(NC(=O)C4CCOCC4)cn3)n2c1 [Compound 193],1000 to 10000 nM
14,CNc1ccc2ncc(-c3ccccn3)n2c1 [Compound 76],1000 to 10000 nM
15,"O=S1(=O)NCCOCCNc2ccc3ncc(n3c2)-c2cccc1c2 [Compound 81, (E)-7-oxa-3-thia-4,10-diaza-1(3,6)-imidazo[1,2-a]pyridine-2(1,3)-benzocyclodecane 3,3-dioxide]",1000 to 10000 nM
